ChEMBL document CHEMBL4400569, “The discovery of quinoline-3-carboxamides as hematopoietic prostaglandin D synthase (H-PGDS) inhibitors” (Bioorg Med Chem, 2019)
≈ marks a conversion by molar mass, not a printed value. Blank lines part the entries; values can stand above or below the compound they belong to.

Experiments:
[1] = Stability in human whole blood assessed as amidase-mediated carboxylic acid formation by measuring parent compound remaining measured after 1 hr; assay type: ADME, tissue-based
[2] = Dose normalized AUC in po dosed mouse; assay type: ADME, organism-based; conditions: in vivo
[3] = Half life in mouse liver microsomes at 0.5 mM preincubated for 5 mins followed by NADP addition and measured after LC-MS/MS analysis; assay type: ADME, Microsome
[4] = Terminal half life in mouse; assay type: ADME, organism-based; conditions: in vivo
[5] = Apparent permeability of the compound at 2.5 uL at pH 7.4 incubated for 3 hrs under shaking condition by PAMPA; assay type: ADME
Mus musculus = species: Mus musculus; experiment: animal or person; conditions: C57BL/6J, po
[6] = Volume of distribution at steady state in mouse; assay type: ADME, organism-based; conditions: in vivo, read-out: Vdss
[7] = Solubility of the compound in FaSSIF by HPLC analysis; assay type: physicochemical
[8] = Clearance in iv dosed mouse; assay type: ADME, organism-based; conditions: in vivo
[9] = Oral bioavailability in mouse; assay type: ADME, organism-based; conditions: in vivo

AUC/dose [2]: 1800 ng·h/mL per mg/kg | half-life [3]: > 3 h | beta t1/2 [4]: 3.8 h | Papp at 3 h [5]: 24 ×10⁻⁶ cm/s
SMILES: CC(C)(O)[C@H]1CC[C@H](NC(=O)c2cnc3cc(OC(F)F)ccc3c2)CC1
ED50 (Mus musculus): 0.032 mg/kg

half-life [3]: 0.633 h
SMILES: COc1ccc2cc(C(=O)N[C@H]3CC[C@H](C(C)(C)O)CC3)cnc2c1

Stability [1]: 93%
SMILES: COc1ccc2cc(C(=O)Nc3cc[nH]n3)cnc2c1

Second part, the compound before the results:

SMILES: COc1ccc2cc(C(=O)N[C@H]3CCNC3=O)cnc2c1
Stability [1]: 100%

SMILES: COc1ccc2cc(C(=O)NC(C)(C)C)cnc2c1
Stability [1]: 1%

SMILES: CC(C)(O)[C@H]1CC[C@H](NC(=O)c2cnc3cc(OC(F)(F)F)ccc3c2)CC1
Vd [6]: 2.5 L/kg | AUC/dose [2]: 1900 ng·h/mL per mg/kg | half-life [3]: > 3 h | solubility [7]: 16 µg/mL (≈ 40.4 µM) | clearance [8]: 3.8 mL/min/kg | half-life [4]: 7.9 h | bioavailability [9]: 46% | Papp at 3 h [5]: 47 ×10⁻⁶ cm/s

SMILES: COc1ccc2cc(C(=O)Nc3cn[nH]c3)cnc2c1
Stability [1]: 63%
